Activity calls are given as the source filed them. No cut-off for these calls is given here.
Columns and labels:
[1] = system: MDA-MB-231; assay: Antiproliferative activity against human MDA-MB-231 cells after 24 hrs by MTT assay; format: functional, cell-based; conditions: MDA-MB-231, 24 h
[2] = system: HepG2; assay: Antiproliferative activity against human HepG2 cells after 24 hrs by MTT assay; format: functional, cell-based; conditions: HepG2, 24 h
[3] = system: MCF7; assay: Antiproliferative activity against human MCF7 cells after 24 hrs by MTT assay; format: functional, cell-based; conditions: MCF7, 24 h
[4] = system: K562; assay: Antiproliferative activity against human K562 cells after 24 hrs by MTT assay; format: functional, cell-based; conditions: K562, 24 h
[5] = system: HepG2; assay: Induction of apoptosis in human HepG2 cells assessed as downregulation of Bcl-xL expression at 0.2 uM after 24 hrs by Western blot method; format: functional, cell-based
[6] = system: HepG2; assay: Induction of apoptosis in human HepG2 cells assessed as increase in cleaved caspase-9 levels at 0.2 uM after 24 hrs by Western blot method; format: functional, cell-based
[7] = system: NIH3T3; assay: Antiproliferative activity against mouse NIH/3T3 cells after 48 hrs by MTT assay; format: cell-based; conditions: nih3t3, 48 h
[8] = system: L02; assay: Antiproliferative activity against human HL-7702 cells after 48 hrs by MTT assay; format: functional, cell-based; conditions: L02, 48 h
[9] = system: HepG2; assay: Induction of apoptosis in human HepG2 cells assessed as ratio of Bax/Bcl-2 at 0.2 uM after 24 hrs by Western blot method (reference value: 0.23); format: functional
[10] = Selectivity ratio of IC50 for human HL-7702 cells to IC50 for human HepG2 cells; format: functional
[11] = system: NIH3T3; assay: Antiproliferative activity against mouse NIH/3T3 cells after 24 hrs by MTT assay; format: cell-based
[12] = Half life in Kunming mouse plasma at 10 uM by HPLC method; format: ADME, cell-free
[13] = system: L02; assay: Antiproliferative activity against human HL-7702 cells after 24 hrs by MTT assay; format: functional, cell-based; conditions: L02, 24 h
[14] = system: HepG2; assay: Induction of apoptosis in human HepG2 cells assessed as late apoptotic cells at 0.2 uM after 24 hrs by annexin-V/propidium iodide staining-based flow cytometric method relative to control; format: functional
[15] = system: HepG2; assay: Induction of apoptosis in human HepG2 cells assessed as upregulation of Bid expression at 0.2 uM after 24 hrs by Western blot method; format: functional, cell-based
[16] = system: HepG2; assay: Induction of apoptosis in human HepG2 cells assessed as increase in cleaved caspase-3 levels at 0.2 uM after 24 hrs by Western blot method; format: functional, cell-based
[17] = system: HepG2; assay: Induction of apoptosis in human HepG2 cells assessed as early apoptotic cells at 0.2 uM after 24 hrs by annexin-V/propidium iodide staining-based flow cytometric method relative to control; format: functional
[18] = target: T1, Tumour suppressor p53/oncoprotein Mdm2 (Homo sapiens) (UniProt P04637+Q00987); assay: Inhibition of MDM2/p53 interaction in human HepG2 cells assessed as increase in p53 to MDM2 ratio at 0.2 uM after 24 hrs by Western blot method (reference value: 0.083); format: cell-based
[19] = system: HepG2; assay: Cell cycle arrest in human HepG2 cells assessed as accumulation at S phase at 0.2 uM after 28 hrs by propidium iodide staining-based flow cytometric method relative to control
[20] = system: HepG2; assay: Induction of apoptosis in human HepG2 cells assessed as increase in cleaved PARP levels at 0.2 uM after 24 hrs by Western blot method; format: functional, cell-based
[21] = Half life in cell culture medium at 10 uM by HPLC method; format: physicochemical
[22] = system: HepG2; assay: Induction of apoptosis in human HepG2 cells assessed as total apoptosis rate at 0.2 uM after 24 hrs by annexin-V/propidium iodide staining-based flow cytometric method relative to control; format: functional
[23] = system: HepG2; assay: Cell cycle arrest in human HepG2 cells assessed as accumulation at S phase co-treated with DMXAA at 1:1 molar ratio after 28 hrs by propidium iodide staining-based flow cytometric method
[24] = system: HepG2; assay: Induction of apoptosis in human HepG2 cells assessed as increase in cleaved caspase-3 levels co-treated with DMXAA at 1:1 molar ratio after 24 hrs by Western blot method; format: functional, cell-based
[25] = system: HepG2; assay: Induction of apoptosis in human HepG2 cells assessed as late apoptotic cells co-treated with pyranoxanthone at 1:1 molar ratio after 24 hrs by annexin-V/propidium iodide staining-based flow cytometric method relative to control; format: functional
[26] = system: HepG2; assay: Induction of apoptosis in human HepG2 cells assessed as increase in cleaved caspase-9 levels co-treated with DMXAA at 1:1 molar ratio after 24 hrs by Western blot method; format: functional, cell-based
[27] = system: HepG2; assay: Antiproliferative activity against human HepG2 cells co-treated with DMXAA at 1:1 molar ratio after 24 hrs by MTT assay; format: functional, cell-based; conditions: HepG2, 24 h
[28] = system: K562; assay: Antiproliferative activity against human K562 cells co-treated with DMXAA at 1:1 molar ratio after 24 hrs by MTT assay; format: functional, cell-based; conditions: K562, 24 h
[29] = target: T1, Tumour suppressor p53/oncoprotein Mdm2 (Homo sapiens); assay: Inhibition of MDM2/p53 interaction in human HepG2 cells assessed as increase in p53 to MDM2 ratio co-treated with DMXAA at 1:1 molar ratio after 24 hrs by Western blot method (reference value: 0.083); format: cell-based
[30] = system: HepG2; assay: Induction of apoptosis in human HepG2 cells assessed as upregulation of Bid expression co-treated with DMXAA at 1:1 molar ratio after 24 hrs by Western blot method; format: functional, cell-based
[31] = system: MCF7; assay: Antiproliferative activity against human MCF7 cells co-treated with DMXAA at 1:1 molar ratio after 24 hrs by MTT assay; format: functional, cell-based; conditions: MCF7, 24 h
[32] = system: MDA-MB-231; assay: Antiproliferative activity against human MDA-MB-231 cells co-treated with DMXAA at 1:1 molar ratio after 24 hrs by MTT assay; format: functional, cell-based; conditions: MDA-MB-231, 24 h
[33] = system: HepG2; assay: Induction of apoptosis in human HepG2 cells assessed as necrotic cells at 0.2 uM after 24 hrs by annexin-V/propidium iodide staining-based flow cytometric method relative to control; format: functional
[34] = system: HepG2; assay: Induction of apoptosis in human HepG2 cells assessed as increase in cleaved PARP levels co-treated with DMXAA at 1:1 molar ratio after 24 hrs by Western blot method; format: functional, cell-based
[35] = system: HepG2; assay: Induction of apoptosis in human HepG2 cells assessed as late apoptotic cells co-treated with DMXAA at 1:1 molar ratio after 24 hrs by annexin-V/propidium iodide staining-based flow cytometric method relative to control; format: functional
[36] = system: HepG2; assay: Induction of apoptosis in human HepG2 cells assessed as ratio of Bax/Bcl-2 co-treated with DMXAA at 1:1 molar ratio after 24 hrs by Western blot method (reference value: 0.23); format: functional
[37] = system: HepG2; assay: Induction of apoptosis in human HepG2 cells assessed as downregulation of Bcl-xL expression co-treated with DMXAA at 1:1 molar ratio after 24 hrs by Western blot method; format: functional, cell-based
[38] = system: HepG2; assay: Induction of apoptosis in human HepG2 cells assessed as early apoptotic cells co-treated with DMXAA at 1:1 molar ratio after 24 hrs by annexin-V/propidium iodide staining-based flow cytometric method relative to control; format: functional
[39] = system: HepG2; assay: Induction of apoptosis in human HepG2 cells assessed as increase in cleaved caspase-3 levels co-treated with pyranoxanthone at 1:1 molar ratio after 24 hrs by Western blot method; format: functional, cell-based
[40] = system: HepG2; assay: Induction of apoptosis in human HepG2 cells assessed as downregulation of Bcl-xL expression co-treated with pyranoxanthone at 1:1 molar ratio after 24 hrs by Western blot method; format: functional, cell-based
[41] = target: T1, Tumour suppressor p53/oncoprotein Mdm2 (Homo sapiens); assay: Inhibition of MDM2/p53 interaction in human HepG2 cells assessed as increase in p53 to MDM2 ratio co-treated with pyranoxanthone at 1:1 molar ratio after 24 hrs by Western blot method (reference value: 0.083); format: cell-based
[42] = system: MDA-MB-231; assay: Antiproliferative activity against human MDA-MB-231 cells co-treated with pyranoxanthone at 1:1 molar ratio after 24 hrs by MTT assay; format: functional, cell-based; conditions: MDA-MB-231, 24 h
[43] = system: MCF7; assay: Antiproliferative activity against human MCF7 cells co-treated with pyranoxanthone at 1:1 molar ratio after 24 hrs by MTT assay; format: functional, cell-based; conditions: MCF7, 24 h
[44] = system: HepG2; assay: Induction of apoptosis in human HepG2 cells assessed as ratio of Bax/Bcl-2 co-treated with pyranoxanthone at 1:1 molar ratio after 24 hrs by Western blot method (reference value: 0.23); format: functional
[45] = system: HepG2; assay: Induction of apoptosis in human HepG2 cells assessed as increase in cleaved PARP levels co-treated with pyranoxanthone at 1:1 molar ratio after 24 hrs by Western blot method; format: functional, cell-based
[46] = system: K562; assay: Antiproliferative activity against human K562 cells co-treated with pyranoxanthone at 1:1 molar ratio after 24 hrs by MTT assay; format: functional, cell-based; conditions: K562, 24 h
[47] = system: HepG2; assay: Induction of apoptosis in human HepG2 cells assessed as early apoptotic cells co-treated with pyranoxanthone at 1:1 molar ratio after 24 hrs by annexin-V/propidium iodide staining-based flow cytometric method relative to control; format: functional
[48] = system: HepG2; assay: Induction of apoptosis in human HepG2 cells assessed as upregulation of Bid expression co-treated with pyranoxanthone at 1:1 molar ratio after 24 hrs by Western blot method; format: functional, cell-based
[49] = system: HepG2; assay: Induction of apoptosis in human HepG2 cells assessed as increase in cleaved caspase-9 levels co-treated with pyranoxanthone at 1:1 molar ratio after 24 hrs by Western blot method; format: functional, cell-based
[50] = system: HepG2; assay: Antiproliferative activity against human HepG2 cells co-treated with pyranoxanthone at 1:1 molar ratio after 24 hrs by MTT assay; format: functional, cell-based; conditions: HepG2, 24 h
[51] = system: HepG2; assay: Cell cycle arrest in human HepG2 cells assessed as accumulation at S phase co-treated with pyranoxanthone at 1:1 molar ratio after 28 hrs by propidium iodide staining-based flow cytometric method

T1 sequence (P04637 whole entry, looked up): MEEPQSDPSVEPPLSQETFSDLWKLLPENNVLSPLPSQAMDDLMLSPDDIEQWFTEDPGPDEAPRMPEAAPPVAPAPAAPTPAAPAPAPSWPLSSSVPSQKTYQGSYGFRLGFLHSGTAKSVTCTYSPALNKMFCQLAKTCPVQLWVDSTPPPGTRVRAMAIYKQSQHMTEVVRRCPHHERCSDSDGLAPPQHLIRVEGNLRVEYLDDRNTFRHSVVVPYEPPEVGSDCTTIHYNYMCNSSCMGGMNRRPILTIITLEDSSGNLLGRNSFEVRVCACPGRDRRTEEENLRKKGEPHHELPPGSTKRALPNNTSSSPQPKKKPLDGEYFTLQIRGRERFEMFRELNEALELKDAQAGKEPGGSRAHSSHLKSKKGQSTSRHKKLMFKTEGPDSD
T1 sequence (Q00987 whole entry, looked up): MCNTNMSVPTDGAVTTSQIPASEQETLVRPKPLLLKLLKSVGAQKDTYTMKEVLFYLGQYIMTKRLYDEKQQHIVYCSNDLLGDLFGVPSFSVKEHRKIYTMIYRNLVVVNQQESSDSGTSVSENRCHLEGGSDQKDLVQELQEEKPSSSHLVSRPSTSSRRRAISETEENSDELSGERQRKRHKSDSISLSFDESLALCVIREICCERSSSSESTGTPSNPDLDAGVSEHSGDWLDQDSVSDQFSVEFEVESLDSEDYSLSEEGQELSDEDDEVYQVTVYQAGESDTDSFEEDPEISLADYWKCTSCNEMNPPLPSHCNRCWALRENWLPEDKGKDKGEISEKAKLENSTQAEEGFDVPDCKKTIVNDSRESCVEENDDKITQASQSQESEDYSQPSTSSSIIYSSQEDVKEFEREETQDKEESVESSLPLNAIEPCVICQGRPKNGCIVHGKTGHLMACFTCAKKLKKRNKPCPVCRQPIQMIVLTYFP

Row | IC50 [1] [µM] | IC50 [2] [µM] | IC50 [3] [µM] | IC50 [4] [µM] | fold change (FC) [18] | SMILES | Activity [5] | Activity [6] | Ratio [9] | IC50 [13] [µM] | Activity [14] [%] | Activity [15] | Activity [16] | Activity [17] [%] | Activity [19] | Activity [20] | other results
1 | 11.2 | 1.53 | 8.72 | 15 | – | Cc1ccc2c(=O)c3cccc(CC(=O)OCCCCCOc4c5c(cc6c(=O)c7ccccc7oc46)CCC(C)(C)O5)c3oc2c1C | – | – | – | – | – | – | – | – | – | – | –
2 | 1.13 | 0.216 | 0.534 | 9.13 | 0.81 | Cc1ccc2c(=O)c3cccc(CC(=O)OCCCCCCOc4c5c(cc6c(=O)c7ccccc7oc46)CCC(C)(C)O5)c3oc2c1C | Active | Active | 0.87 | 378 to 452 | 42 | Active | Active | 38 | 90% | Active | Activity [7]: Non-Toxic; IC50 [8]: 293 to 352 µM; Ratio IC50 [10]: 2092; Activity ([11]; mouse, nih3t3, 24 h): Non-Toxic; half-life at 10 µM [12]: 252 min; half-life at 10 µM [21]: 1490 min
3 | 32.2 | 32.7 | 51.7 | 32.3 | – | Cc1ccc2c(=O)c3cccc(CC(=O)OCCCOc4c5c(cc6c(=O)c7ccccc7oc46)CCC(C)(C)O5)c3oc2c1C | – | – | – | – | – | – | – | – | – | – | –
4 | 19.6 | 11.9 | 33.2 | 20.6 | – | Cc1ccc2c(=O)c3cccc(CC(=O)OCCCCOc4c5c(cc6c(=O)c7ccccc7oc46)CCC(C)(C)O5)c3oc2c1C | – | – | – | – | – | – | – | – | – | – | –
5 | 59.3 | 40.3 | 102 | 27.8 | 0.19 | CC1(C)CCc2cc3c(=O)c4ccccc4oc3c(O)c2O1 [DIHYDRO-12-HYDROXY-2,2-DIMETHYL-2H,6H-PYRANO[3,2-B]XANTHEN-6-ONE] | Active | Active | 0.36 | – | – | Active | Active | – | Active | Active | Activity [22]: <10%; Activity [23]: Active; Activity [24]: Active; Activity [25]: 46%; Activity [26]: Active; IC50 [27]: 21.2 µM; IC50 [28]: 19.1 µM; fold change (FC) [29]: 0.67; Activity [30]: Active; IC50 [31]: 11.9 µM; IC50 [32]: 12.1 µM; Activity [33]: <10%; Activity [34]: Active; Activity [35]: 46%; Ratio [36]: 0.58; Activity [37]: Active
6 | – | – | – | – | – | Cc1ccc2c(=O)c3cccc(CC(=O)O)c3oc2c1C [VADIMEZAN] | – | Active | – | 101 | 7 | – | Active | 13 | Active | Active | Activity [38]: 15%; Activity [39]: Active; Activity [40]: Active; fold change (FC) [41]: 0.67; IC50 [42]: 12.1 µM; IC50 [43]: 11.9 µM; IC50 ([11]; Mus musculus, NIH3T3, 24 h): 67.8 µM; Ratio [44]: 0.58; Activity [45]: Active; IC50 [46]: 19.1 µM; Activity [47]: 15%; Activity [48]: Active; Activity [49]: Active; IC50 [50]: 21.2 µM; Activity [51]: Active

Reference: ChEMBL document CHEMBL4138163, “DMXAA-pyranoxanthone hybrids enhance inhibition activities against human cancer cells with multi-target functions” (Eur J Med Chem, 2018)
